Patent publication US4770870A, “Method for reducing pain associated with the administration of 4-sulfido-oxazaphosphorines and 4-sulfoalkylthio-oxazaphorphorines” (Asta Pharma Aktiengesellschaft, priority 1981, dated 1988)
Structures can show the parent of a compound that is named as a salt. Where two headings read alike, the source gives them in different places.

Columns and labels:
[1] = mouse, in vivo
[2] = Acute toxicity (LD50), single intravenous dose, species not stated; conditions: in vivo
[3] = test system: Human mammary-carcinoma; assay: Human mammary-carcinoma heterotransplanted to nu/nu mice; type: in vivo, human tumor in mouse (nu/nu); conditions: cyclophosphamide single injection of 100 mg/kg
Procedure: (The experimental procedure was carried out as follows according to: C. O. Polvsen, G. K. Jacobsen, J. Rygaard, The Laboratory Animal in Drug Testing, Editor A. Spiegel, pages 63-73, Fischer-Verlag, Stuttgart, (1973).
(a) Human mammary-carcinoma from operation material of a women's clinic were heterotransplanted to thymusaplastic nu/ny mice. After the 23-25th passage in each case by implantation of a thin tumor section having a diameter of 8-10 mm into the milk ducts after growth of the implants to 0.15-0.25 grams the animals were subjected to therapy and the curative effect determined through measuring the tumor surface.

[4] = Subchronic toxicity, NMRI-mouse; conditions: same pattern without cysteine, total dosage 3 mmol/kg

O=S(=O)([O-])CCS.[Na+]
prevention of pain induced by mafosfamide lysine salt (rat, in vivo): completely prevented the pain-inducing effect of mafosfamide lysine salt

Cl [HCl pH 4, hydrochloric acid]
Reaction (+ = reaction, - = no reaction) (rat, in vivo): -
reaction (rat, in vivo): Neither

CC(=O)N[C@@H](CS)C(=O)O [NAC, N-acetyl-cysteine]
prevention of pain induced by mafosfamide lysine salt (5 molar mesna or NAC solution): completely prevented the pain-inducing effect of mafosfamide lysine salt

O=P1(N(CCCl)CCCl)NC(SCC(S)CS(=O)(=O)O)CCO1 (centres unmarked) [cyclohexylamine salt, 3-[2-(bis-(2-chloroethyl)-amine-2-oxo-tetrahydro-2H-1,3,2-oxazaphosphorine-4-yl-thio]-2-mercaptopropanesulfonic acid-cyclohexylamine salt]
increase of the LD50 [1]: 2-3 fold

O=P1(N(CCCl)CCCl)NCCCO1 (centres unmarked) [cyclophosphamide]
LD50 [2]: 244 mg/kg
Approximate threshold concentration inducing venous pain (Table 1, sleeping rat): 30 mg/mL
concentration at which no reaction was induced (sleeping rat): below 30 mg/ml
Reaction (+ = reaction, - = no reaction) (sleeping rat, tail vein infusion): +
tumor growth [3]: checking of the tumor growth
deaths of mice [4]: 6 mice

O=P1(NCCCl)OCCCN1CCCl (centres unmarked) [ifosfamide]
Approximate threshold concentration inducing venous pain (rat, in vivo): > 10 mg/mL
Reaction (+ = reaction, - = no reaction) (rat, in vivo): +
concentration at which no reaction was induced (rat, in vivo): below 10 mg/ml
